# Data published in US20230092163A1, “COMPOUNDS AND COMPOSITIONS FOR TREATING CONDITIONS ASSOCIATED WITH STING ACTIVITY” (IFM Due, Inc., priority 2019, published 2023).
# Molecular target: STING (Homo sapiens, UniProt Q86WV6, G230A/H232R/R293Q/R71H)
# Test: STING reporter assay: THP1-Dual KO-IFNAR2 cells stimulated with 2′3′cGAMP, luciferase reporter activity
# Type: cell-based
# Details: 15 μM 2′3′cGAMP, 24h, class symbols
# Description: STING pathway activation by the compounds described herein were measured using THP1-Dual™ cells (KO-IFNAR2).
# THP1-Dual™ KO-IFNAR2 Cells (obtained from invivogen) were maintained in RPMI, 10% FCS, 5 ml P/S, 2 mM L-glut, 10 mM Hepes, and 1 mM sodium pyruvate. Compounds were spotted in empty 384 well tissue culture plates (Greiner 781182) by Echo for a final concentration of 0.0017-100 μM. Cells were plated into the TC plates at 40 μL per well, 2×10E6 cells/mL. For activation with STING ligand, 2′3′cGAMP (MW 718.38, obtained from Invivogen), was prepared in Optimem media.
# The following solutions were prepared for each 1×384 plate: • Solution A: 2 mL Optimem with one of the following stimuli: • 60 uL of 10 mM 2′3′cGAMP ->150 μM stock • Solution B: 2 mL Optimem with 60 μL Lipofectamine 2000->Incubate 5 min at RT
# 2 mL of solution A and 2 ml Solution B was mixed and incubated for 20 min at room temperature (RT). 20 uL of transfection solution (A+B) was added on top of the plated cells, with a final 2′3′cGAMP concentration of 15 μM. The plates were then centrifuged immediately at 340 g for 1 minute, after which they were incubated at 37° C., 5% CO2, >98% humidity for 24h. Luciferase reporter activity was then measured. EC50 values were calculated by using standard methods known in the art.
# Luciferase reporter assay: 10 μL of supernatant from the assay was transferred to white 384-plate with flat bottom and squared wells. One pouch of QUANTI-Luc™ Plus was dissolved in 25 mL of water. 100 μL of QLC Stabilizer per 25 mL of QUANTI-Luc™ Plus solution was added. 50 μL of QUANTI-Luc™ Plus/QLC solution per well is then added. Luminescence is measured on a Platereader (e.g., Spectramax I3X (Molecular Devices GF3637001)).
# Luciferase reporter activity was then measured. EC50 values were calculated by using standard methods known in the art.
# STING, sequence (Q86WV6 whole entry R71H/G230A/H232R/R293Q): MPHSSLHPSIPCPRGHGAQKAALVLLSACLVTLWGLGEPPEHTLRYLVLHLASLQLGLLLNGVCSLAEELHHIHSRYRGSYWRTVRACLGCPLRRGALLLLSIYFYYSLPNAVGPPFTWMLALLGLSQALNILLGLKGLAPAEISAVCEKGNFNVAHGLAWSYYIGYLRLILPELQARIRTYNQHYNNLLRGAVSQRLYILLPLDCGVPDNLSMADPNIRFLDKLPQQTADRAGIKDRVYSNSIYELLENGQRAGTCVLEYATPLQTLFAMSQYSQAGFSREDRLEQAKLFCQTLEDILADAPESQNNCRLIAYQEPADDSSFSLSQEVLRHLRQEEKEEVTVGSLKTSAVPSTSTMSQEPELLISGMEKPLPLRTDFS
row,Structure (SMILES),EC50 [µM]
1,N#Cc1cc(Nc2ccc3ccc(C(F)(F)F)cc3n2)cc2[nH]ccc12 [Compound 384],1 to 5
2,O=C(NCCc1c[nH]c2cc(OC(F)(F)F)ccc12)Nc1ccc2cc[nH]c2c1 [Compound 173],0.2 to 1
3,O=C(Nc1ccc(C(F)(F)F)cc1)Nc1ccc2cc[nH]c2c1 [Compound 101],0.04 to 0.2
4,O=C(Nc1ccc(C(F)(F)F)cc1)Nc1ccc2[nH]ccc2c1 [Compound 102],1 to 5
5,O=C(NCCOc1cccc(Br)c1)Nc1ccc2cc[nH]c2c1 [Compound 175],1 to 5
6,O=C(Nc1ccc(S(=O)(=O)C(F)(F)F)cc1)Nc1ccc2[nH]ccc2c1 [Compound 289],5 to 100
7,CCCCC1CCC(NC(=O)Nc2ccc3cc[nH]c3c2)CC1 (stereo not shown) [Compound 271],0.2 to 1
8,CCC(NC(=O)Nc1ccc2cc[nH]c2c1)c1cccc(C(F)(F)F)c1 (stereo not shown) [Compound 199],1 to 5
9,O=C(Nc1cccc(C(F)(F)F)c1)Nc1ccc2[nH]ccc2c1 [Compound 374],5 to 100
10,O=C(NCCN1CCC(Cc2ccccc2)CC1)Nc1ccc2cc[nH]c2c1 [Compound 174],5 to 100
11,CCCCc1ccc(NC(=O)Nc2ccc3cc[nH]c3c2)cc1 [Compound 273],0.2 to 1
12,O=C(NCCc1ncc(C(F)(F)F)cc1Cl)Nc1ccc2cc[nH]c2c1 [Compound 201],1 to 5
13,N#Cc1ccc(OC2CCC(NC(=O)Nc3ccc4cc[nH]c4c3)CC2)cc1 (stereo not shown) [Compound 195],1 to 5
14,"N#Cc1c[nH]c2cc(NC(=O)Nc3ccc(C(F)(F)F)cc3)ccc12 [Compound 258, 3-(3-cyano-1H-indol-6-yl)-1-[4-(trifluoromethyl)phenyl]urea]",0.2 to 1
15,O=C(NCc1ccc(Cl)c(C(F)(F)F)c1)Nc1ccc2cc[nH]c2c1 [Compound 207],1 to 5
16,O=C(Nc1ccc(C(F)(F)F)cc1)Nc1cc(F)c2cc[nH]c2c1 [Compound 246],0.2 to 1
17,O=C(Nc1ccc(C(F)(F)F)cc1)Nc1cc(Br)c2cc[nH]c2c1 [Compound 155],0.04 to 0.2
18,O=C(Nc1ccc(C(F)(F)F)cc1)Nc1cc(-c2ccccc2)c2cc[nH]c2c1 [Compound 169],1 to 5
19,"O=C(Nc1ccc(C(F)(F)F)cc1)Nc1ccc2c(F)c[nH]c2c1 [Compound 242, 3-(3-fluoro-1H-indol-6-yl)-1-[4-(trifluoromethyl)phenyl]urea]",0.2 to 1

# Results, then the compound that gave them:
row,EC50 [µM],Structure (SMILES)
1,0.2 to 1,FC(F)(F)c1cc(Cl)cc2nc(Nc3ccc4cc[nH]c4c3)ccc12 [Compound 563]
2,0.2 to 1,FC(F)(F)c1ccc2ccc(Nc3cc(Cl)c4cc[nH]c4c3)nc2c1 [Compound 604]
3,1 to 5,CCCCc1ccc(Nc2c(Nc3ccc4c(c3)CC=N4)c(=O)c2=O)cc1 [Compound 618]
4,0.2 to 1,Brc1ccc2ccc(Nc3ccc4cc[nH]c4c3)nc2c1 [Compound 607]
5,1 to 5,"Fc1cnc(Nc2ccc3cc[nH]c3c2)cc1Nc1ccc2cc[nH]c2c1 [Compound 593, 5-fluoro-N2,N4-bis(1H-indol-6-yl)pyridine-2,4-diamine]"
6,1 to 5,O=C(NCc1cc(Cl)cc(C(F)(F)F)c1)Nc1cnc2cc[nH]c2c1 [Compound 507]
7,1 to 5,"c1cnc2nc(Nc3ccc4ccn(-c5ccc6cccnc6n5)c4c3)ccc2c1 [Compound 560, N-[1-(1,8-naphthyridin-2-yl)-1H-indol-6-yl]-1,8-naphthyridin-2-amine]"
8,1 to 5,"FC(F)(F)Oc1ccc2c(Cl)cc(Nc3ccc4cc[nH]c4c3)nc2c1 [Compound 576, 4-chloro-N-(1H-indol-6-yl)-7-(trifluoromethoxy)quinolin-2-amine]"
9,1 to 5,"C1=C(c2ccc3ccc(Nc4ccc5cc[nH]c5c4)nc3c2)CCCC1 [Compound 606, 7-(cyclohex-1-en-1-yl)-N-(1H-indol-6-yl)quinolin-2-amine]"
10,1 to 5,"CC(C)(C)c1cccc(Nc2ccc3cc[nH]c3c2)n1 [Compound 420, N-(6-(tert-butyl)pyridin-2-yl)-1H-indol-6-amine]"
11,1 to 5,Cc1ccc2ccc(Nc3ccc4cc[nH]c4c3)nc2c1 [Compound 592]
12,5 to 100,CN(C)CCc1cc(NC(=O)Nc2ccc(C(F)(F)F)cc2)cc2[nH]ccc12 [Compound 513]
13,1 to 5,"O=C(Nc1ccc(C(F)(F)F)cc1)Nc1cc(C(=O)OC2CCCC2)c2cc[nH]c2c1 [Compound 602, cyclopentyl 6-(3-(4-(trifluoromethyl)phenyl)ureido)-1H-indole-4-carboxylate]"
14,5 to 100,"Cc1nc(Nc2ccc3cc[nH]c3c2)ccc1Cl [Compound 595, N-(5-chloro-6-methylpyridin-2-yl)-1H-indol-6-amine]"
15,1 to 5,FC(F)(F)c1cc2nc(Nc3ccc4cc[nH]c4c3)ccc2cc1Cl [Compound 556]
16,0.2 to 1,FC(F)(F)c1c(Cl)ccc2nc(Nc3ccc4cc[nH]c4c3)ccc12 [Compound 553]
17,1 to 5,"[N-]=[N+]=Nc1ccc(NC(=O)Nc2ccc3cc[nH]c3c2)cc1 [Compound 510, 1-(4-azidophenyl)-3-(1H-indol-6-yl)urea]"

# Same assay, conditions: 15 μM 2′3′cGAMP, 24h, numeric bounds
row,Structure (SMILES),EC50 [µM]
1,O=C(NCCc1ccccc1Br)Nc1ccc2[nH]ccc2c1 [Compound 304],> 30
2,Cc1ccc(CNC(=O)Nc2ccc3[nH]ccc3c2)cc1 [Compound 339],> 30
3,Cn1cc(NC(=O)Nc2ccc3cc[nH]c3c2)cn1 [Compound 189],> 30
4,CCCCc1ccc(Nc2c(Nc3ccc4cc[nH]c4c3)c(=O)c2=O)cc1 [Compound 113],> 14.8
5,O=C(NCc1csc(-c2ccc(Cl)cc2)n1)Nc1ccc2[nH]ccc2c1 [Compound 350],> 30
6,Cc1cccc(CNC(=O)Nc2ccc3[nH]ccc3c2)c1 [Compound 340],> 30
7,O=C(Nc1ccc2cc[nH]c2c1)Nc1ccccc1Cl [Compound 194],> 30
8,O=C(Nc1ccc2[nH]ccc2c1)Nc1ccon1 [Compound 334],> 30
9,O=C(Nc1cccc(C(F)F)c1)Nc1ccc2[nH]ccc2c1 [Compound 303],> 30
10,O=C(Nc1ccc(F)c(F)c1)Nc1ccc2[nH]ccc2c1 [Compound 342],> 30
11,Cc1c(NC(=O)Nc2ccc(C(F)(F)F)cc2)ccc2cc[nH]c12 [Compound 259],> 30
12,O=C(Nc1ccc2[nH]ccc2c1)Nc1ccc2[nH]ccc2c1 [Compound 283],> 30
13,CCCCCCCCCCCCCCCCNC(=O)Nc1ccc2[nH]ccc2c1 [Compound 348],> 30
14,O=C(NCCc1ccccc1Br)Nc1ccc2cc[nH]c2c1 [Compound 184],> 30
15,O=C(Nc1ccc2[nH]ccc2c1)NC1Cc2ccccc2C1 [Compound 357],> 30
16,O=C(Nc1cccc(S(=O)(=O)N2CCCC2)c1)Nc1ccc2[nH]ccc2c1 [Compound 282],> 30
17,O=C(NCCc1ccccc1)Nc1ccc2[nH]ccc2c1 [Compound 327],> 30
18,CCCCCCCCCCCCCCNC(=O)Nc1ccc2[nH]ccc2c1 [Compound 351],> 30
19,CC(CNC(=O)Nc1ccc2[nH]ccc2c1)c1ccccc1 (stereo not shown) [Compound 325],> 30
20,O=C(Nc1ccc2cc[nH]c2c1)Nc1ccno1 [Compound 191],> 30
21,O=C(NCCSCc1c(Cl)cccc1Cl)Nc1ccc2[nH]ccc2c1 [Compound 349],> 30
22,CC(C)(C)OC(=O)N1CC(CCNC(=O)Nc2ccc3[nH]ccc3c2)C1 [Compound 316],> 30
23,O=C(Nc1cnc2ccc(C(F)(F)F)cc2c1)Nc1ccc2[nH]ccc2c1 [Compound 286],> 30

# More lines, now with the values ahead:
row,EC50 [µM],Structure (SMILES)
1,> 30,Cn1cc(-n2cc(C#N)c3ccc(NC(=O)Nc4ccc(C(F)(F)F)cc4)cc32)cn1 [Compound 544]
2,> 30,"OCc1cccnc1Nc1ccc2cc[nH]c2c1 [Compound 400, (2-((1H-indol-6-yl)amino)pyridin-3-yl)methanol]"
3,> 30,"O=C1CCc2nc(Nc3ccc4cc[nH]c4c3)ccc21 [Compound 596, 2-[(1H-indol-6-yl)amino]-5H,6H,7H-cyclopenta[b]pyridin-5-one]"
4,> 30,O=C(Nc1ccc(N2CC(F)(F)C2)nc1)Nc1ccc2c(F)c[nH]c2c1 [Compound 517]
5,> 30,"CN1CCC(COc2cnc(Nc3ccc4cc[nH]c4c3)nc2)CC1 [Compound 414, N-(5-((1-methylpiperidin-4-yl)methoxy)pyrimidin-2-yl)-1H-indol-6-amine]"
6,> 30,"FC(F)(F)COc1ccnc(Nc2ccc3cc[nH]c3c2)n1 [Compound 410, N-(4-(2,2,2-trifluoroethoxy)pyrimidin-2-yl)-1H-indol-6-amine]"
7,> 30,"FC(F)(F)Oc1cccc(Nc2ccc3cc[nH]c3c2)n1 [Compound 409, N-(6-(trifluoromethoxy)pyridin-2-yl)-1H-indol-6-amine]"
8,> 30,"FC(F)(F)c1ccc2cnc(Nc3ccc4cc[nH]c4c3)nc2c1 [Compound 432, N-(1H-indol-6-yl)-7-(trifluoromethyl)quinazol in-2-amine]"
